The test system of series [1] is sodium channel. Put plainly: Guanidine influx assay (14C-guanidine radiotracer flux, in vitro). It counts as cell-based, human or rat. The following applies: guanidine influx assay using a known cell line that expresses a sodium channel. A digest of the protocol: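 Radiotracer read-out: intracellular 14C-guanidine counted after washing with guanidine-supplemented low-sodium buffer. Cells expressing human or rat channels get test agent plus aconitine activator and tracer, incubated at ambient temperature. Dilution series centred on 1 μM; IC50 by sigmoidal dose-response fit.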

Series [2] deals with CYP3A4 (Homo sapiens, UniProt P08684). Kind of series: Cytochrome P450 (CYP450) Inhibition Assay, CYP3A4 (Vivid fluorescence, BOMCC substrate). To be noted: human, P450 Baculosomes (recombinant CYP3A4), probe BOMCC (Vivid substrate).
CYP3A4, sequence (P08684 whole entry): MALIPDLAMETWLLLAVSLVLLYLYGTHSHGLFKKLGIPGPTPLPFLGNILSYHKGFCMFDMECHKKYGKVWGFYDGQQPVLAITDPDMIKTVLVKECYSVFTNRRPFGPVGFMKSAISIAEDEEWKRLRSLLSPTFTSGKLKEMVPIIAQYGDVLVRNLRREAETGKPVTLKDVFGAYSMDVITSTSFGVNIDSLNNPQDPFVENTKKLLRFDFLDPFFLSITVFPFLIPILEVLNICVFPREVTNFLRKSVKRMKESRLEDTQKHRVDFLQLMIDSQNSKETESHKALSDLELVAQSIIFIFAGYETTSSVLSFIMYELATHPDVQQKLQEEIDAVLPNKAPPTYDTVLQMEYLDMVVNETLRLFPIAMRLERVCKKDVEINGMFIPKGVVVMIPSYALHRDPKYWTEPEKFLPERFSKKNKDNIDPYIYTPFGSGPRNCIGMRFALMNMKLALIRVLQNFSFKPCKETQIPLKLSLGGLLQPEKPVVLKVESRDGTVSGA

Consider 27 molecules from patent US8263606B2 (Xenon Pharmaceuticals Inc., priority 2008, dated 2012).

Structures can show the parent of a compound that is named as a salt.

Take `O=C1N(Cc2ccc(-c3nnn[nH]3)cc2)c2ccccc2C12COc1cc3c(cc12)CCO3` (stereo not drawn) [Example 11.44, 1′-[4-(1H-tetrazol-5-yl)benzyl]-5,6-dihydrospiro[benzo[1,2-b:5,4-b′]difuran-3,3′-indol]-2′(1′H)-one]: the half-inhibitory concentration (IC50) in series [1] was 1000 to 10000 nM. Also, the inhibition at 10 µM in series [2] was over 50%.
Taken in the same sequence, the figures for `O=C1N(Cc2ccc(N3CCOCC3)cc2)c2ccccc2C12COc1cc3c(cc12)CCO3` (stereo not drawn) [Example 11.46, t-(4-morpholin-4-ylbenzyl)-5,6-dihydrospiro[benzo[1,2-b:5,4-b′]difuran-3,3′-indol]-2′(1′H)-one] were 100 to 1000 nM and over 50%.
Take `CS(=O)(=O)Nc1ccc2c(c1)OCC21C(=O)N(C[C@H]2CCCO2)c2ccccc21` (stereo partly drawn) [Example 11.48, N-{2′-oxo-1′-[(2R)-tetrahydrofuran-2-ylmethyl]-1′,2′-dihydrospiro[1-benzofuran-3,3′-indol]-6-yl}methanesulfonamide]: in series [1], the IC50 is 1000 to 10000 nM. Besides, the inhibition at 10 µM in series [2] was under 50%.
The like results for `CC(C)Oc1ccc2c(c1)OCC21C(=O)N(C[C@H]2CCCO2)c2ccccc21` (stereo partly drawn) [Example 11.54, 6-(1-methylethoxy)-1′-[(2R)-tetrahydrofuran-2-ylmethyl]spiro[1-benzofuran-3,3′-indol]-2′(1′H)-one] were, in that order, 100 to 1000 nM and under 50%.
Taken in the same sequence, the figures for `O=C1N(CC2CCNC2)c2ccccc2C12COc1cc3c(cc12)CCO3` (stereo not drawn) [Example 11.61, 1′-(pyrrolidin-3-ylmethyl)-5,6-dihydrospiro[benzo[1,2-b:5,4-b′]difuran-3,3′-indol]-2′(1′H)-one] were 1000 to 10000 nM and under 50%.
The like results for `CN1CCN(CN2C(=O)C3(COc4cc5c(cc43)OCO5)c3ccccc32)CC1` (stereo not drawn) [Example 11.63, 1′-[(4-methylpiperazin-1-yl)methyl]spiro[furo[2,3-f][1,3]benzodioxole-7,3′-indol]-2′(1′H)-one hydrogen chloride] were, in that order, 1 to 100 nM and over 50%.
Turning to `COc1cc2c(cc1C)[C@]1(CO2)C(=O)N(CN2CCN(C)CC2)c2ccccc21` [Example 11.65, (3R)-6-methoxy-5-methyl-1′-[(4-methylpiperazin-1-yl)methyl]spiro[1-benzofuran-3,3′-indol]-2′(1′H)-one hydrogen chloride], in series [1], the half-inhibitory concentration (IC50) fell in the range of 100 to 1000 nM. In addition, in series [2], the inhibition at 10 µM is over 50%.
The like results for `O=C1N(C[C@@H]2CCCO2)c2ccccc2[C@@]12COc1cc3c(cc12)CCO3` [Example 11.68, (3R)-1-[(2S)-tetrahydrofuran-2-ylmethyl]-5,6-dihydrospiro[benzo[1,2-b:5,4-b′]difuran-3,3′-indol]-2′(1′H)-one] were, in that order, 1 to 100 nM and over 50%.
Taken in the same sequence, the figures for `CS(=O)(=O)Nc1cccc(CN2C(=O)C3(COc4cc5c(cc43)OCCO5)c3ccccc32)c1` (stereo not drawn) [Example 11.94, N-{3-[(2′-oxo-2,3-dihydrospiro[furo[2,3-g][1,4]benzodioxine-8,3′-indol]-1′(2′H)-yl)methyl]phenyl}methanesulfonamide] were 100 to 1000 nM and over 50%.
The like results for `O=C1N(Cc2cccc[n+]2[O-])c2ccccc2C12COc1cc3c(cc12)OCCO3` (stereo not drawn) [Example 11.95, 1′-[(1-oxidopyridin-2-yl)methyl]-2,3-dihydrospiro[furo[2,3-g][1,4]benzodioxine-8,3′-indol]-2′(1′H)-one] were, in that order, 100 to 1000 nM and under 50%.
As for `Nc1cccnc1CN1C(=O)C2(COc3cc4c(cc32)OCCO4)c2ccccc21` (stereo not drawn) [Example 11.97, 1′-[(3-aminopyridin-2-yl)methyl]-2,3-dihydrospiro[furo[2,3-g][1,4]benzodioxine-8,3′-indol]-2′(1′H)-one hydrobromide], the IC50 in series [1] is 1 to 100 nM. Also, the inhibition at 10 µM in series [2] was over 50%.
Taken in the same sequence, the figures for `CS(=O)(=O)Nc1cccnc1CN1C(=O)C2(COc3cc4c(cc32)OCCO4)c2ccccc21` (stereo not drawn) [Example 11.98, N-{2-[(2′-oxo-2,3-dihydrospiro[furo[2,3-g][1,4]benzodioxine-8,3′-indol]-1′(2′H)-yl)methyl]pyridine-3-yl}methanesulfonamide] were 100 to 1000 nM and over 50%.
On to `O=C1N(CC2CCNCC2)c2ccccc2C12COc1cc3c(cc12)OCCO3` (stereo not drawn) [Example 11.99, 1-(piperidin-4-ylmethyl)-2,3-dihydrospiro[furo[2,3-g][1,4]benzodioxine-8,3′-indol]-2′(1′H)-one hydrochloride], for which the half-maximal inhibitory concentration (IC50) in series [1] was 1000 to 10000 nM. Further, the inhibition at 10 µM in series [2] was under 50%.
Consider `CN1CCC(CN2C(=O)C3(COc4cc5c(cc43)OCCO5)c3ccccc32)CC1` (stereo not drawn) [Example 11.101, 1-[(1-methylpiperidin-4-yl)methyl]-2,3-dihydrospiro[furo[2,3-g][1,4]benzodioxine-8,3′-indol]-2′(1′H)-one hydrochloride], for which, in series [1], the half-inhibitory concentration (IC50) was 1000 to 10000 nM. For the same molecule, in series [2], the inhibition at 10 µM is under 50%.
Taken in the same sequence, the figures for `CN1CCC(CN2C(=O)C3(COc4cc(F)c(F)cc43)c3ccccc32)CC1` (stereo not drawn) [Example 11.112, 5,6-difluoro-1′-[(1-methylpiperidin-4-yl)methyl]spiro[1-benzofuran-3,3′-indol]-2′(1′H)-one hydrochloride] were 1 to 100 nM and over 50%.
On to `O=C(NCC1CCCCC1)c1cccc(CN2C(=O)C3(COc4cc5c(cc43)CCO5)c3ccccc32)c1` (stereo not drawn) [Example 12, N-(cyclohexylmethyl)-3-[(2′-oxo-5,6-dihydrospiro[benzo[1,2-b:5,4-b′]difuran-3,3′-indol]-1′(2′H)-yl)methyl]benzamide], for which the IC50 in series [1] was 100 to 1000 nM. Moreover, the inhibition at 10 µM in series [2] is over 50%.
The like results for `CC(CNC(=O)c1cccc(CN2C(=O)C3(COc4cc5c(cc43)CCO5)c3ccccc32)c1)c1ccccc1` (stereo not drawn) [Example 12.5, 3-[(2′-oxo-5,6-dihydrospiro[benzo[1,2-b:5,4-b′]difuran-3,3′-indol]-1′(2′H)-yl)methyl]-N-(2-phenylpropyl)benzamide] were, in that order, 100 to 1000 nM and over 50%.
The like results for `C[C@H](NC(=O)c1cccc(CN2C(=O)C3(COc4cc5c(cc43)CCO5)c3ccccc32)c1)C1CCCCC1` (stereo partly drawn) [Example 12.6, N-[(1S)-1-cyclohexylethyl]-3-[(2′-oxo-5,6-dihydrospiro[benzo[1,2-b:5,4-b′]difuran-3,3′-indol]-1′(2′H)-yl)methyl]benzamide] were, in that order, 100 to 1000 nM and over 50%.
The like results for `C[C@@H](NC(=O)c1cccc(CN2C(=O)C3(COc4cc5c(cc43)CCO5)c3ccccc32)c1)C1CCCCC1` (stereo partly drawn) [Example 12.7, N-[(1R)-1-cyclohexylethyl]-3-[(2′-oxo-5,6-dihydrospiro[benzo[1,2-b:5,4-b′]difuran-3,3′-indol]-1′(2′H)-yl)methyl]benzamide] were, in that order, 1000 to 10000 nM and over 50%.
As for `COc1ccc(CCNC(=O)c2ccccc2CN2C(=O)C3(COc4cc5c(cc43)CCO5)c3ccccc32)cc1` (stereo not drawn) [Example 12.22, N-[2-(4-methoxyphenyl)ethyl]-2-[(2′-oxo-5,6-dihydrospiro[benzo[1,2-b:5,4-b′]difuran-3,3′-indol]-1′(2′H)-yl)methyl]benzamide], in series [1], the half-inhibitory concentration (IC50) was 1000 to 10000 nM. Besides, the inhibition at 10 µM in series [2] was over 50%.
Taken in the same sequence, the figures for `O=C(NCc1cccc(Cl)c1)c1ccccc1CN1C(=O)C2(COc3cc4c(cc32)CCO4)c2ccccc21` (stereo not drawn) [Example 12.23, N-(3-chlorobenzyl)-2-[(2′-oxo-5,6-dihydrospiro[benzo[1,2-b:5,4-b′]difuran-3,3′-indol]-1′(2′H)-yl)methyl]benzamide] were 1000 to 10000 nM and over 50%.
The like results for `O=C(NCCc1ccc(Cl)cc1)c1ccccc1CN1C(=O)C2(COc3cc4c(cc32)CCO4)c2ccccc21` (stereo not drawn) [Example 12.24, N-[2-(4-chlorophenyl)ethyl]-2-[(2′-oxo-5,6-dihydrospiro[benzo[1,2-b:5,4-b′]difuran-3,3′-indol]-1′(2′H)-yl)methyl]benzamide] were, in that order, 1000 to 10000 nM and over 50%.
Taken in the same sequence, the figures for `COc1ccccc1NC(=O)c1ccc(CN2C(=O)C3(COc4cc5c(cc43)CCO5)c3ccccc32)cc1` (stereo not drawn) [Example 12.25, N-(2-methoxyphenyl)-4-[(2′-oxo-5,6-dihydrospiro[benzo[1,2-b:5,4-b′]difuran-3,3′-indol]-1′(2′H)-yl)methyl]benzamide] were 1000 to 10000 nM and under 50%.
For `O=C(Nc1ccccc1C(F)(F)F)c1ccc(CN2C(=O)C3(COc4cc5c(cc43)CCO5)c3ccccc32)cc1` (stereo not drawn) [Example 12.26, 4-[(2′-oxo-5,6-dihydrospiro[benzo[1,2-b:5,4-b′]difuran-3,3′-indol]-1′(2′H)-yl)methyl]-N-[2-(trifluoromethyl)phenyl]benzamide], the IC50 in series [1] fell in the range of 1000 to 10000 nM. For the same molecule, the inhibition at 10 µM in series [2] is over 50%.
Turning to `O=C(Nc1ccccc1)c1ccc(CN2C(=O)C3(COc4cc5c(cc43)CCO5)c3ccccc32)cc1` (stereo not drawn) [Example 12.27, 4-[(2′-oxo-5,6-dihydrospiro[benzo[1,2-b:5,4-b′]difuran-3,3′-indol]-1′(2′H)-yl)methyl]-N-phenylbenzamide], in series [1], the IC50 lay in the range of 100 to 1000 nM. The inhibition at 10 µM in series [2] was under 50%.
The like results for `CNC(=O)c1ccc(CN2C(=O)C3(COc4cc5c(cc43)CCO5)c3ccccc32)cc1` (stereo not drawn) [Example 12.28, N-methyl-4-[(2′-oxo-5,6-dihydrospiro[benzo[1,2-b:5,4-b′]difuran-3,3′-indol]-1′(2′H)-yl)methyl]benzamide] were, in that order, 100 to 1000 nM and over 50%.
The like results for `O=C(Nc1ccccc1F)c1ccc(CN2C(=O)C3(COc4cc5c(cc43)CCO5)c3ccccc32)cc1` (stereo not drawn) [Example 12.29, N-(2-fluorophenyl)-4-[(2′-oxo-5,6-dihydrospiro[benzo[1,2-b:5,4-b′]difuran-3,3′-indol]-1′(2′H)-yl)methyl]benzamide] were, in that order, 100 to 1000 nM and under 50%.
